Test results from paper PMC7413254 (Nature Communications, 2020).
Like-named read-outs stand apart in the source and are kept apart here. Where no end group is shown, it is not given here.

Columns and labels:
Type in all cases: cell-based
PfCRT^3D7 = PfCRT^3D7 (Plasmodium falciparum, UniProt Q8IBZ9); assay: cell-based; settings: for [3H]CQ transport, PfCRT3D7 (% PfCRTDd2 control): 45 mM VF-6 injected, 96 mM Na+ injection buffer; for activity at 2000 µM: read-out: [3H]CQ transport, PfCRT3D7, trans-stimulation, solute 2 mM; for [3H]CQ transport, PfCRT3D7 (% PfCRT3D7 control): solute 45 mM injected (estimated intracellular)
How it was run: (§1)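 Oocytes (ten per treatment, ≥4 independent frogs/days) were preloaded by injecting VF-6 in 25 nL ND96 at pH 5.0, 5.5, 6.0 or 7.0, or Na^+-free choline buffer, then uptake run 1.5 h, 27.5 °C, ND96 pH 5.5 by default. Internal concentrations assumed ~400 nL oocyte volume.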

PfCRT^Dd2 [1] = molecular target: T1, PfCRT^Dd2 (Plasmodium falciparum, UniProt Q9N623, A220S/I356T/K76T/M74I/N326S/N75E/Q271E/R371I); assay: cell-based; settings: […]; for activity at 2000 µM: pH 5.5, read-out: [3H]CQ transport, PfCRTDd2, trans-stimulation, solute 2 mM
How it was run: as §1

PfNT1 = molecular target: T2, PfNT1 (Plasmodium falciparum, UniProt Q8IDM6); assay: cell-based; settings: for activity at 2000 µM: read-out: [3H]CQ transport, PfNT1, trans-stimulation, solute 2 mM
T2 construct: expressed in transfected cells; host or cells: Xenopus laevis oocytes (stage V-VI), cRNA-injected
How it was run: as §1

PfCRT^Ecu1110 [2] = molecular target: T3, PfCRT^Ecu1110 (Plasmodium falciparum, UniProt Q9N623, A220S/I356L/K76T/N326D); assay: cell-based; settings: […]; for activity at 45000 µM: read-out: [3H]CQ transport, PfCRTEcu1110 (% PfCRTDd2 control), 45 mM VF-6 injected, 0 mM Na+ injection buffer; for activity at 2000 µM: read-out: [3H]CQ transport, PfCRTEcu1110, trans-stimulation, solute 2 mM
How it was run: as §1

PfCRT^Dd2 [3] = molecular target: T1, PfCRT^Dd2; assay: [3H]CQ uptake into Xenopus oocytes, cis-inhibition by unlabelled solute; settings: read-out: PfCRT-mediated [3H]CQ transport, cis-inhibition (% PfCRTDd2 control)
How it was run: (§2)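 Transport runs from the acidic bath into the cytosol, analogous to PfCRT-mediated efflux out of the vacuole. Non-expressing oocytes act as background.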

PfCRT^Ecu1110 [4] = molecular target: T3, PfCRT^Ecu1110; assay: as above
How it was run: as §2

[5] = read-out: PfCRT-mediated [3H]CQ transport, cis-inhibition (% PfCRTEcu1110 control)
[6] = read-out: [3H]CQ transport (% PfCRTEcu1110 control), cis-inhibition, PfCRTEcu1110, SEM

T3 sequence (Q9N623 whole entry A220S/I356L/K76T/N326D): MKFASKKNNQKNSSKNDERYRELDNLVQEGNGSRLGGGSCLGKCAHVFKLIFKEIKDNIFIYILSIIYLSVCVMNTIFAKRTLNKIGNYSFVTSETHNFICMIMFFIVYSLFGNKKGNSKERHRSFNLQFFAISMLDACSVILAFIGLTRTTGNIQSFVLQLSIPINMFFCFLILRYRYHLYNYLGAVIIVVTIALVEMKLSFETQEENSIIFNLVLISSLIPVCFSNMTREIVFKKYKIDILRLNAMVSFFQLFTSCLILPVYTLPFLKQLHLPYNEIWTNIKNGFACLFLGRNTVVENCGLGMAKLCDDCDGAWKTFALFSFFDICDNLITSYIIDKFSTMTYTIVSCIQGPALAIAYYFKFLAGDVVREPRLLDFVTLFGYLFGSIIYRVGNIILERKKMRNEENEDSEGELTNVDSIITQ
T2 sequence (Q8IDM6 whole entry): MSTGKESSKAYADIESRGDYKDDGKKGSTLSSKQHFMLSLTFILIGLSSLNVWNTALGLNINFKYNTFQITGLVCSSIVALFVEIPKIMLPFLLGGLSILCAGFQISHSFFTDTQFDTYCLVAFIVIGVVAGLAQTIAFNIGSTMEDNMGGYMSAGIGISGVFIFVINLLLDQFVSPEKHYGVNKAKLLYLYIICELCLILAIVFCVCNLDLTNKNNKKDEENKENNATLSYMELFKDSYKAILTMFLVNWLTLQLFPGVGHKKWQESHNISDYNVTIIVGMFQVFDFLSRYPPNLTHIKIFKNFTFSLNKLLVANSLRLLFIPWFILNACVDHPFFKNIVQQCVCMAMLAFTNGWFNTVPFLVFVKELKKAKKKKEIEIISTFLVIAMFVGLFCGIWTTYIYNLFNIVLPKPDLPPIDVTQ
Sequence of PfCRT^3D7 (Q8IBZ9 59-398): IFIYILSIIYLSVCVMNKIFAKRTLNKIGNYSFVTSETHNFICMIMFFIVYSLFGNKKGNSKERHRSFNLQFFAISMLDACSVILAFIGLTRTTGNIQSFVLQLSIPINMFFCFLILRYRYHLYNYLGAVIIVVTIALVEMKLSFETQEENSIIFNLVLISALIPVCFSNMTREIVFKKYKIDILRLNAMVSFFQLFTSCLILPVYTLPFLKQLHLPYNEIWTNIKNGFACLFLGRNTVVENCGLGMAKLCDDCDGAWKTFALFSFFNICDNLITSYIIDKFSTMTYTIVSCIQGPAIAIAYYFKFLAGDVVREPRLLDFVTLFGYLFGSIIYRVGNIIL
T1 sequence (Q9N623 whole entry A220S/I356T/K76T/M74I/N326S/N75E/Q271E/R371I): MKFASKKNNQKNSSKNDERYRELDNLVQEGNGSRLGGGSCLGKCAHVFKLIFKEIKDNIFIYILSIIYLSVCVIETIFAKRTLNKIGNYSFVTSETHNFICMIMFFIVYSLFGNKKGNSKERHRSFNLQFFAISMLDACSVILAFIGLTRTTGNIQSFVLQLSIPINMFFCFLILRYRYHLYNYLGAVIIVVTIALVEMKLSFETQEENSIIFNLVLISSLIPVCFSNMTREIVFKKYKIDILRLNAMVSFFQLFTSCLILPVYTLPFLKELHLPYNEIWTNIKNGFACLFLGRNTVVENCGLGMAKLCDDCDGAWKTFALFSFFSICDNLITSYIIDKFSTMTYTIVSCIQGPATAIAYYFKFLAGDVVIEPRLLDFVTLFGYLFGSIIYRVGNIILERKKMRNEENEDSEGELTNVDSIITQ

VDPVNF [VF-6]
[3H]CQ transport, PfCRT3D7 (% PfCRTDd2 control) (PfCRT^3D7; Experiment 1): 22.53 % PfCRTDd2 control
[3H]CQ transport, PfCRT3D7 (% PfCRTDd2 control) (PfCRT^3D7; Experiment 2): 23.78 % PfCRTDd2 control
[3H]CQ transport, PfCRT3D7 (% PfCRTDd2 control) (PfCRT^3D7; Experiment 3): 24.68 % PfCRTDd2 control
[3H]CQ transport, PfCRT3D7 (% PfCRTDd2 control) (PfCRT^3D7; Experiment 4): 25.32 % PfCRTDd2 control
[3H]CQ transport, PfCRT3D7 (% PfCRTDd2 control) (PfCRT^3D7; Experiment 5): 26.32 % PfCRTDd2 control
activity at 5000 µM (PfCRT^3D7; […], read-out: PfCRT-mediated [3H]CQ transport, trans-stimulation (% PfCRT3D7 control), [test solute]i = 5 mM (intracellular), PfCRT3D7 oocytes, normalised to oocyte type control): 147 ± 5.2%
activity at 45000 µM (PfCRT^3D7; […], read-out: PfCRT-mediated [3H]CQ transport, trans-stimulation (% PfCRT3D7 control), [test solute]i = 45 mM (intracellular; 30 mM for some solutes due to solubility), PfCRT3D7 oocytes, normalised to oocyte type control): 195 ± 4.6%
activity at 45000 µM (PfCRT^3D7; […], read-out: [3H]CQ transport, PfCRT3D7 (% PfCRTDd2 control), 45 mM VF-6 injected, 0 mM Na+ injection buffer, Experiment 1): 25.3%
activity at 45000 µM (PfCRT^3D7; […], read-out: [3H]CQ transport, PfCRT3D7 (% PfCRTDd2 control), 45 mM VF-6 injected, 0 mM Na+ injection buffer, Experiment 2): 26.4%
activity at 45000 µM (PfCRT^3D7; […], read-out: [3H]CQ transport, PfCRT3D7 (% PfCRTDd2 control), 45 mM VF-6 injected, 0 mM Na+ injection buffer, Experiment 3): 25.3%
activity at 45000 µM (PfCRT^3D7; […], read-out: [3H]CQ transport, PfCRT3D7 (% PfCRTDd2 control), 45 mM VF-6 injected, 0 mM Na+ injection buffer, Experiment 4): 26.8%
activity at 45000 µM (PfCRT^3D7; […], read-out: [3H]CQ transport, PfCRT3D7 (% PfCRTDd2 control), 45 mM VF-6 injected, 0 mM Na+ injection buffer, Experiment 5): 27.3%
activity at 2000 µM (PfCRT^3D7; […], Experiment 1): 22.9%
activity at 2000 µM (PfCRT^3D7; […], Experiment 2): 19.1%
activity at 2000 µM (PfCRT^3D7; […], Experiment 3): 21.1%
activity at 2000 µM (PfCRT^3D7; […], Experiment 4): 21.8%
[3H]CQ transport, PfCRT3D7 (% PfCRT3D7 control) (PfCRT^3D7; trans-stimulation, Experiment 1): 187.43 % PfCRT3D7 control
[3H]CQ transport, PfCRT3D7 (% PfCRT3D7 control) (PfCRT^3D7; trans-stimulation, Experiment 2): 206.32 % PfCRT3D7 control
[3H]CQ transport, PfCRT3D7 (% PfCRT3D7 control) (PfCRT^3D7; trans-stimulation, Experiment 3): 201.32 % PfCRT3D7 control
[3H]CQ transport, PfCRT3D7 (% PfCRT3D7 control) (PfCRT^3D7; trans-stimulation, Experiment 4): 199.25 % PfCRT3D7 control
[3H]CQ transport (% PfCRT3D7 control), trans-stimulation, PfCRT3D7 (PfCRT^3D7; trans-stimulation, [test solute]i = 5 mM (injected), PfCRT-mediated component (background subtracted), sheet title says normalised to PfCRTDd2 control, mean ± SEM, SEM): 1.7 ± 0.02 % PfCRT3D7 control
activity at 5000 µM (PfCRT^Dd2 [1]; pH 5.5, read-out: PfCRT-mediated [3H]CQ transport, trans-stimulation (% PfCRTDd2 control), [test solute]i = 5 mM (intracellular), PfCRTDd2 oocytes, normalised to oocyte type control): 103 ± 3.1%
activity at 5000 µM (PfCRT^Dd2 [1]; pH 5.5, read-out: [3H]CQ transport (% PfCRTDd2 control), trans-stimulation, PfCRTDd2, trans-stimulation, [test solute]i = 5 mM (injected), PfCRT-mediated component (background subtracted), mean ± SEM, SEM): 103 ± 3.1%
activity at 45000 µM (PfCRT^Dd2 [1]; pH 5.5, read-out: [3H]CQ transport (% PfCRTDd2 control), trans-stimulation, PfCRTDd2, trans-stimulation, [test solute]i = 45 mM (30 mM for some solutes due to solubility), PfCRT-mediated component (background subtracted), mean ± SEM, SEM): 112 ± 2.1%
activity at 2000 µM (PfCRT^Dd2 [1]; Experiment 1): 120%
activity at 2000 µM (PfCRT^Dd2 [1]; Experiment 2): 119%
activity at 2000 µM (PfCRT^Dd2 [1]; Experiment 3): 120%
activity at 2000 µM (PfCRT^Dd2 [1]; Experiment 4): 112%
[3H]CQ transport, PfNT1 (% PfCRTDd2 control) (PfNT1; 45 mM VF-6 injected, 0 mM Na+ injection buffer, Experiment 1): 3.36 % PfCRTDd2 control
[3H]CQ transport, PfNT1 (% PfCRTDd2 control) (PfNT1; 45 mM VF-6 injected, 0 mM Na+ injection buffer, Experiment 2): 3.47 % PfCRTDd2 control
[3H]CQ transport, PfNT1 (% PfCRTDd2 control) (PfNT1; 45 mM VF-6 injected, 0 mM Na+ injection buffer, Experiment 3): 3.88 % PfCRTDd2 control
[3H]CQ transport, PfNT1 (% PfCRTDd2 control) (PfNT1; 45 mM VF-6 injected, 0 mM Na+ injection buffer, Experiment 4): 3.57 % PfCRTDd2 control
[3H]CQ transport, PfNT1 (% PfCRTDd2 control) (PfNT1; 45 mM VF-6 injected, 0 mM Na+ injection buffer, Experiment 5): 3.69 % PfCRTDd2 control
[3H]CQ transport, PfNT1 (% PfCRTDd2 control) (PfNT1; 45 mM VF-6 injected, 96 mM Na+ injection buffer, Experiment 1): 3.72 % PfCRTDd2 control
[3H]CQ transport, PfNT1 (% PfCRTDd2 control) (PfNT1; 45 mM VF-6 injected, 96 mM Na+ injection buffer, Experiment 2): 3.21 % PfCRTDd2 control
[3H]CQ transport, PfNT1 (% PfCRTDd2 control) (PfNT1; 45 mM VF-6 injected, 96 mM Na+ injection buffer, Experiment 3): 3.67 % PfCRTDd2 control
[3H]CQ transport, PfNT1 (% PfCRTDd2 control) (PfNT1; 45 mM VF-6 injected, 96 mM Na+ injection buffer, Experiment 4): 3.45 % PfCRTDd2 control
[3H]CQ transport, PfNT1 (% PfCRTDd2 control) (PfNT1; 45 mM VF-6 injected, 96 mM Na+ injection buffer, Experiment 5): 3.27 % PfCRTDd2 control
activity at 2000 µM (PfNT1; Experiment 1): 2.65%
activity at 2000 µM (PfNT1; Experiment 2): 2.51%
activity at 2000 µM (PfNT1; Experiment 3): 2.61%
activity at 2000 µM (PfNT1; Experiment 4): 2.73%
[3H]CQ transport, PfNT1 (% PfCRTDd2 control) (PfNT1; trans-stimulation, solute 45 mM injected (estimated intracellular), Experiment 1): 2.65 % PfCRTDd2 control
[3H]CQ transport, PfNT1 (% PfCRTDd2 control) (PfNT1; trans-stimulation, solute 45 mM injected (estimated intracellular), Experiment 2): 2.51 % PfCRTDd2 control
[3H]CQ transport, PfNT1 (% PfCRTDd2 control) (PfNT1; trans-stimulation, solute 45 mM injected (estimated intracellular), Experiment 3): 2.61 % PfCRTDd2 control
[3H]CQ transport, PfNT1 (% PfCRTDd2 control) (PfNT1; trans-stimulation, solute 45 mM injected (estimated intracellular), Experiment 4): 2.73 % PfCRTDd2 control
activity at 5000 µM (PfCRT^Ecu1110 [2]; pH 5.5, read-out: PfCRT-mediated [3H]CQ transport, trans-stimulation (% PfCRTEcu1110 control), [test solute]i = 5 mM (intracellular), PfCRTEcu1110 oocytes, normalised to oocyte type control): 126 ± 2.4%
activity at 45000 µM (PfCRT^Ecu1110 [2]; Experiment 1): 47.7%
activity at 45000 µM (PfCRT^Ecu1110 [2]; Experiment 2): 47.6%
activity at 45000 µM (PfCRT^Ecu1110 [2]; Experiment 3): 50.8%
activity at 45000 µM (PfCRT^Ecu1110 [2]; Experiment 4): 49.2%
activity at 45000 µM (PfCRT^Ecu1110 [2]; Experiment 5): 51.1%
activity at 2000 µM (PfCRT^Ecu1110 [2]; Experiment 1): 44.2%
activity at 2000 µM (PfCRT^Ecu1110 [2]; Experiment 2): 47.3%
activity at 2000 µM (PfCRT^Ecu1110 [2]; Experiment 3): 38.4%
activity at 2000 µM (PfCRT^Ecu1110 [2]; Experiment 4): 45.6%
inhibition at 500 µM (PfCRT^Dd2 [3]): 30 ± 1.1%
inhibition at 1000 µM (PfCRT^Dd2 [3]): 21 ± 0.8%
inhibition at 2000 µM (PfCRT^Dd2 [3]): 8.1 ± 0.2%
inhibition at 500 µM (PfCRT^Ecu1110 [4]; [5]): 50 ± 2.4%
inhibition at 1000 µM (PfCRT^Ecu1110 [4]; [5]): 39 ± 4.1%
inhibition at 2000 µM (PfCRT^Ecu1110 [4]; [5]): 26 ± 2.1%
inhibition at 500 µM (PfCRT^Ecu1110 [4]; [6]): 16 ± 0.3%
inhibition at 1000 µM (PfCRT^Ecu1110 [4]; [6]): 12 ± 0.2%
inhibition at 2000 µM (PfCRT^Ecu1110 [4]; [6]): 8 ± 0.04%
